These results are taken from ChEMBL document CHEMBL5029164, “JNJ-67569762, A 2-Aminotetrahydropyridine-Based Selective BACE1 Inhibitor Targeting the S3 Pocket: From Discovery to Clinical Candidate” (J Med Chem, 2021).

The source made the active and inactive calls. The rule behind the calls is not given here. A value given as a limit tells only on which side of the number the result lay.

The first data set concerns the target T1, Beta-secretase 2 (Homo sapiens, UniProt Q9Y5Z0).
T1 sequence (Q9Y5Z0 whole entry): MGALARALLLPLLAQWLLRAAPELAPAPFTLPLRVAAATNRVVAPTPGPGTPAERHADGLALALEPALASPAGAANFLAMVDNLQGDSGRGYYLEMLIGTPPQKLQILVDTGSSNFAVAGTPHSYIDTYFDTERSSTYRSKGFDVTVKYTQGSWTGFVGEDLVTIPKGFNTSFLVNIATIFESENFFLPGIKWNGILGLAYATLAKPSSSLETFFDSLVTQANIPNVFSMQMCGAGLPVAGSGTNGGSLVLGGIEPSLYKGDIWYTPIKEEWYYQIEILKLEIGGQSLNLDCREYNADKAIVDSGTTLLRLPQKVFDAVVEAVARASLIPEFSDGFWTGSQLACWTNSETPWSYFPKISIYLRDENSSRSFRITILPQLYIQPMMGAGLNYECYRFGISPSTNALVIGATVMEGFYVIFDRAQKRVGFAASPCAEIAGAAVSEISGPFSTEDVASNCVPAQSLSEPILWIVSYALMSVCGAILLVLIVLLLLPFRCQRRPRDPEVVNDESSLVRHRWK
Put plainly: Inhibition of BACE2 (unknown origin) using APP harboring Swedish Lys-Met/Asn-Leu mutant-derived peptide as substrate incubated for 2 hrs by FRET assay.
Settings: not given
`C[C@@]1(S(C)(=O)=O)CC[C@@](CF)(c2cc(NC(=O)c3cc4c(cn3)OCCO4)ccc2F)N=C1N` came in with a half-maximal inhibitory concentration (IC50) of 0.34 µM.
In turn, `C[C@@]1(S(C)(=O)=O)CC[C@@](CF)(c2cc(NC(=O)c3cnc(OCF)cn3)ccc2F)N=C1N` showed a concentration for half-maximal inhibition (IC50) of 0.016 µM.
For the molecule `C[C@@]1(S(C)(=O)=O)CC[C@@](CF)(c2cc(NC(=O)c3cc4c(cn3)OCCCO4)ccc2F)N=C1N`, inhibition was half-maximal at 1.15 µM (IC50).
Still for that read-out and setting: with `CCc1cc([C@]2(c3ccc(F)c(-c4cccnc4C(F)F)c3)N=C(N)N(C)C2=O)cc(CC)n1` the figure was 6.7 µM; with `C[C@@]1(S(C)(=O)=O)CC[C@@](CF)(c2cc(NC(=O)c3cc4c(cn3)OCO4)ccc2F)N=C1N`, 0.047 µM.
On the same count and under the same terms, with `CC(C)S(=O)(=O)[C@]1(C)CC[C@@](CF)(c2cc(NC(=O)c3cc4c(cn3)OC(F)(F)O4)ccc2F)N=C1N` the figure was 0.468 µM.
Same read-out and setting: the result for `COc1cc(C(=O)Nc2ccc(F)c([C@]3(CF)CC[C@@](C)(S(C)(=O)=O)C(N)=N3)c2)ncn1` reads 0.189 µM.
On to `C[C@@]1(S(C)(=O)=O)CC[C@@](CF)(c2cc(NC(=O)c3ccc(F)cn3)ccc2F)N=C1N`, for which it took 0.0031 µM to reach half-maximal inhibition (IC50).

The target of another data set is T2, Beta-secretase 1 (Homo sapiens, UniProt P56817). Put plainly: Inhibition of BACE1 in human […] cells expressing wild type APP695 assessed as reduction in amyloid beta 42 secretion incubated for 18 hrs by sandwich ELISA. The class given is cell-based, SKNBE2.
T2 sequence (P56817 whole entry): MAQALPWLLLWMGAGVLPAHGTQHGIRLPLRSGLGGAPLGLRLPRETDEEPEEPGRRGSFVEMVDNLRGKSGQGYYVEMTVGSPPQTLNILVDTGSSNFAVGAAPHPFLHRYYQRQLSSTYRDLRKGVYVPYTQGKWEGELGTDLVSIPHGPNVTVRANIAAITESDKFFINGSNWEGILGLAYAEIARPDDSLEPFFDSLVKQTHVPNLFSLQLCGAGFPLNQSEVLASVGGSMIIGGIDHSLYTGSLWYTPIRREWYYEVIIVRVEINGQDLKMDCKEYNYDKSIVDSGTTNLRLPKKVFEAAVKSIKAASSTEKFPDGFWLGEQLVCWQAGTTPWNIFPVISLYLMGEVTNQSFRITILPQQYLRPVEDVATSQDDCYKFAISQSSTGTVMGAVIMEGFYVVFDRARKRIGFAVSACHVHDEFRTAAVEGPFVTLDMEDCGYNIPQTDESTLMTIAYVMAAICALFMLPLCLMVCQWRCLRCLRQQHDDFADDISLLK
Settings: not given
In general terms: ELISA stands for enzyme-linked immunosorbent assay.
For the molecule `C[C@@]1(S(C)(=O)=O)CC[C@@](CF)(c2cc(NC(=O)c3cc4c(cn3)OCCO4)ccc2F)N=C1N`, the IC50 turned out to be 0.003 µM.
Still for that read-out and setting: the result for `C[C@@]1(S(C)(=O)=O)CC[C@@](CF)(c2cc(NC(=O)c3cnc(OCF)cn3)ccc2F)N=C1N` reads 0.0023 µM; that for `C[C@@]1(S(C)(=O)=O)CC[C@@](CF)(c2cc(NC(=O)c3cc4c(cn3)OCCCO4)ccc2F)N=C1N`, 0.076 µM; that for `C[C@@]1(S(C)(=O)=O)CC[C@@](CF)(c2cc(NC(=O)c3cc4c(cn3)OCO4)ccc2F)N=C1N`, 0.011 µM.
Same read-out and setting: the result for `CC(C)S(=O)(=O)[C@]1(C)CC[C@@](CF)(c2cc(NC(=O)c3cc4c(cn3)OC(F)(F)O4)ccc2F)N=C1N` reads 0.0068 µM.
On the same count and under the same terms, with `COc1cc(C(=O)Nc2ccc(F)c([C@]3(CF)CC[C@@](C)(S(C)(=O)=O)C(N)=N3)c2)ncn1` the figure was 0.015 µM; with `C[C@@]1(S(C)(=O)=O)CC[C@@](CF)(c2cc(NC(=O)c3ccc(F)cn3)ccc2F)N=C1N`, 0.0033 µM.

For the next data set, the target named is T2, Beta-secretase 1. Put plainly: Inhibition of BACE1 (1 to 454 residues) (unknown origin) using APP harboring Swedish Lys-Met/Asn-Leu mutant-derived peptide as substrate by FRET assay.
Settings: not given
Regarding `C[C@@]1(S(C)(=O)=O)CC[C@@](CF)(c2cc(NC(=O)c3cc4c(cn3)OC(F)(F)CO4)ccc2F)N=C1N`, the half-maximal inhibitory concentration (IC50) is 0.0014 µM.
Still for that read-out and setting: with `C[C@@]1(S(C)(=O)=O)CC[C@@](CF)(c2cc(NC(=O)c3cc4c(cn3)OCCO4)ccc2F)N=C1N` the figure was 0.0023 µM.
Same read-out and setting: the result for `C[C@@]1(S(C)(=O)=O)CC[C@@](CF)(c2cc(NC(=O)c3cnc(OCF)cn3)ccc2F)N=C1N` reads 0.002 µM; that for `C[C@@]1(S(C)(=O)=O)CC[C@@](CF)(c2cc(NC(=O)c3cc4c(cn3)OCCCO4)ccc2F)N=C1N`, 0.028 µM; that for `CCc1cc([C@]2(c3ccc(F)c(-c4cccnc4C(F)F)c3)N=C(N)N(C)C2=O)cc(CC)n1`, 0.01 µM.
Same read-out and setting: with `C[C@@]1(S(C)(=O)=O)CC[C@@](CF)(c2cc(NC(=O)c3cc4c(cn3)OCO4)ccc2F)N=C1N` the figure was 0.0023 µM; with `CC(C)S(=O)(=O)[C@]1(C)CC[C@@](CF)(c2cc(NC(=O)c3cc4c(cn3)OC(F)(F)O4)ccc2F)N=C1N`, 0.01 µM; with `COc1cc(C(=O)Nc2ccc(F)c([C@]3(CF)CC[C@@](C)(S(C)(=O)=O)C(N)=N3)c2)ncn1`, 0.0095 µM.

Test system in the next data set: not listed separately
The data set is described as follows: Cyanide reactivity in human liver microsomes. The class given is ADME.
Settings: not given
As to `C[C@@]1(S(C)(=O)=O)CC[C@@](CF)(c2cc(NC(=O)c3cc4c(cn3)OC(F)(F)CO4)ccc2F)N=C1N`, the outcome was Active.
Same read-out and setting: the result for `C[C@@]1(S(C)(=O)=O)CC[C@@](CF)(c2cc(NC(=O)c3cc4c(cn3)OCCO4)ccc2F)N=C1N` reads “Active”.
The same measure, in the same setting: with `C[C@@]1(S(C)(=O)=O)CC[C@@](CF)(c2cc(NC(=O)c3cc4c(cn3)OC(F)(F)O4)ccc2F)N=C1N` the entry was “Active”; with `[2H]C1([2H])Oc2cnc(C(=O)Nc3ccc(F)c([C@]4(CF)CC[C@@](C)(S(C)(=O)=O)C(N)=N4)c3)cc2OC1([2H])[2H]`, “Active”.

The species named for a further data set is Homo sapiens. The data set is described as follows: Selectivity index, ratio of IC50 for inhibition of BACE2 (unknown origin) to IC50 for inhibition of BACE1 (1 to 454 residues) (unknown origin).
Settings: not given
Take `C[C@@]1(S(C)(=O)=O)CC[C@@](CF)(c2cc(NC(=O)c3cc4c(cn3)OC(F)(F)CO4)ccc2F)N=C1N`: the Ratio IC50 is 48.
On the same count and under the same terms, with `C[C@@]1(S(C)(=O)=O)CC[C@@](CF)(c2cc(NC(=O)c3cc4c(cn3)OCCO4)ccc2F)N=C1N` the figure was 145; with `C[C@@]1(S(C)(=O)=O)CC[C@@](CF)(c2cc(NC(=O)c3cc4c(cn3)OC(F)(F)O4)ccc2F)N=C1N`, 38; with `C[C@@]1(S(C)(=O)=O)CC[C@@](CF)(c2cc(NC(=O)c3cc4c(cn3)OCCCO4)ccc2F)N=C1N`, 41.
For `CC(C)S(=O)(=O)[C@]1(C)CC[C@@](CF)(c2cc(NC(=O)c3cc4c(cn3)OC(F)(F)O4)ccc2F)N=C1N`, the Ratio IC50 is 46.
The same measure, in the same setting: with `COc1cc(C(=O)Nc2ccc(F)c([C@]3(CF)CC[C@@](C)(S(C)(=O)=O)C(N)=N3)c2)ncn1` the figure was 19.

The data set is the same for the next values; noted with them: tested as the 2H-labelled form.
In the case of `C[C@@]1(S(C)(=O)=O)CC[C@@](CF)(c2cc(NC(=O)c3cc4c(cn3)OCCO4)ccc2F)N=C1N`, the Ratio IC50 turned out to be 102.

Test system in a further data set: not listed separately
The data set is described as follows: Glutathione reactivity in human liver microsomes. The format is ADME.
Settings: not given
Background: Liver microsomes are a subcellular fraction often used to study metabolism.
In the case of `C[C@@]1(S(C)(=O)=O)CC[C@@](CF)(c2cc(NC(=O)c3cc4c(cn3)OC(F)(F)CO4)ccc2F)N=C1N`, the Activity result was “Not Active”.
The same measure, in the same setting: the result for `C[C@@]1(S(C)(=O)=O)CC[C@@](CF)(c2cc(NC(=O)c3cc4c(cn3)OCCO4)ccc2F)N=C1N` reads “Not Active”; that for `C[C@@]1(S(C)(=O)=O)CC[C@@](CF)(c2cc(NC(=O)c3cc4c(cn3)OC(F)(F)O4)ccc2F)N=C1N`, “Not Active”; that for `[2H]C1([2H])Oc2cnc(C(=O)Nc3ccc(F)c([C@]4(CF)CC[C@@](C)(S(C)(=O)=O)C(N)=N4)c3)cc2OC1([2H])[2H]`, “Not Active”.

Test system in the next data set: not listed separately
The data set is described as follows: Metabolic stability in human liver microsomes assessed as intrinsic clearance. The format is ADME, Microsome. The following applies: read-out: CLH.
For `C[C@@]1(S(C)(=O)=O)CC[C@@](CF)(c2cc(NC(=O)c3cc4c(cn3)OC(F)(F)CO4)ccc2F)N=C1N`, the microsomal CLint is less than 7.7 µL/min/mg.
Same read-out and setting: with `C[C@@]1(S(C)(=O)=O)CC[C@@](CF)(c2cc(NC(=O)c3cc4c(cn3)OCCO4)ccc2F)N=C1N` the figure was 11.3 µL/min/mg.
Same read-out and setting: the result for `C[C@@]1(S(C)(=O)=O)CC[C@@](CF)(c2cc(NC(=O)c3cc4c(cn3)OC(F)(F)O4)ccc2F)N=C1N` reads less than 7.7 µL/min/mg.
Same read-out and setting: the result for `C[C@@]1(S(C)(=O)=O)CC[C@@](CF)(c2cc(NC(=O)c3cc4c(cn3)OCCCO4)ccc2F)N=C1N` reads 16.7 µL/min/mg; that for `[2H]C1([2H])Oc2cnc(C(=O)Nc3ccc(F)c([C@]4(CF)CC[C@@](C)(S(C)(=O)=O)C(N)=N4)c3)cc2OC1([2H])[2H]`, 7.9 µL/min/mg.
For `C[C@@]1(S(C)(=O)=O)CC[C@@](CF)(c2cc(NC(=O)c3cc4c(cn3)OCO4)ccc2F)N=C1N`, the microsomal CLint was determined as 36.4 µL/min/mg.
In the case of `CC(C)S(=O)(=O)[C@]1(C)CC[C@@](CF)(c2cc(NC(=O)c3cc4c(cn3)OC(F)(F)O4)ccc2F)N=C1N`, the microsomal CLint was less than 7.7 µL/min/mg.
Still for that read-out and setting: the result for `COc1cc(C(=O)Nc2ccc(F)c([C@]3(CF)CC[C@@](C)(S(C)(=O)=O)C(N)=N3)c2)ncn1` reads less than 7.7 µL/min/mg.
On the same count and under the same terms, the result for `C[C@@]1(S(C)(=O)=O)CC[C@@](CF)(c2cc(NC(=O)c3ccc(F)cn3)ccc2F)N=C1N` reads less than 7.7 µL/min/mg.

For a further data set, the system named is Mus musculus. The data set is described as follows: In vivo inhibition of BACE1 in C57BL/6J mouse assessed as reduction in plasma SEZ6L level at 3.5 to 52 mg/kg,/day administered via diet for 21 days. The format is functional, organism-based. Particulars: dose 3.5-52 mg/kg, time 21.0 day.
For the molecule `C[C@@]1(c2cc(NC(=O)c3ccc(C#N)cn3)ccc2F)C[C@@H](C(F)(F)F)OC(N)=N1`, the inhibition result was “Active”.

A word on the IC50: it is the midpoint of a concentration-inhibition curve.
